{"source": "patent US6074845A", "about": "(priority 1999, dated 2000)", "key": {"[1]": {"tested_on": "ATP-sensitive potassium channel", "conditions": "rabbit mesenteric resistance arteries and rat basilar artery; cited from earlier work"}, "[2]": {"tested_on": "insulin-stimulated glycogen synthesis", "conditions": "activation of sensory nerves; cited from earlier work"}, "[3]": {"biological_target": "T1, BECRLR (bovine calcitonin receptor-like receptor) (Bos taurus, UniProt A6QP74)", "T1 construct": "amplify the open reading frame of the novel bovine CRLR cDNA; expressed in transfected cells; also transient transfection", "T1 sequence (A6QP74 23-462)": "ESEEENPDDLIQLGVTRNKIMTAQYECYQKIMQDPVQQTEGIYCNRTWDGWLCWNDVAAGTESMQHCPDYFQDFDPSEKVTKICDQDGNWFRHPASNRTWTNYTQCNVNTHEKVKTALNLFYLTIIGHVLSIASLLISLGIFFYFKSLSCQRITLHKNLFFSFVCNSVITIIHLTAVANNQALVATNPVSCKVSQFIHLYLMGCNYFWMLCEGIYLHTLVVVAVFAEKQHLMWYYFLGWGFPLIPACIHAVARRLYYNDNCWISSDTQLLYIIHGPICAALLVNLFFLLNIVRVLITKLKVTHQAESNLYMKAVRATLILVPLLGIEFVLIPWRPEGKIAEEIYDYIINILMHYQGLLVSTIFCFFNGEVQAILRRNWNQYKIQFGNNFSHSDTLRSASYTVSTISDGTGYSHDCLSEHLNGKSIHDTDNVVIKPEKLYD", "T1 sequence (O60895 43-175 partner)": "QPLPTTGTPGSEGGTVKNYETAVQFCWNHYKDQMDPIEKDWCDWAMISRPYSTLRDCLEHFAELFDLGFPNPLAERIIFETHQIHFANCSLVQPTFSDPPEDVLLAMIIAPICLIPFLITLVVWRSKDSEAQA", "experiment": "Competition binding, displacement of [125I] rADM from BECRLR membranes", "conditions": "BE-CRLR membranes; for IC50: [125I] rADM", "procedure": "(§1) Cells from BECRLR-293 were scraped into ice-cold PBS and centrifuged for 10 min at 1000× g at 4° C. The pellet was resuspended in 10 mM Tris-HCl, pH 7.4, 10 mM Na-EDTA and homogenized using a Dounce ground glass homogenizer. The homogenate was centrifuged for 20 min at 12,000× g at 4° C. and the resultant membrane pellet was resuspended in 50 mM Tris-HCl, pH 7.4, 10 mM MgCl2 and recentrifuged. The final pellet was resuspended in 50 mM Tris-HCl, pH 7.4, 10 mM MgCl2 and assayed immediately.\n(§2) Saturation binding experiments were carried out using membranes prepared from BECRLR-293 cells pretreated in the absence or presence of ADM. The incubation mixture contained various concentrations of [^125 I] ADM (5 to 120 pM) and 40-60 μg of membrane protein in a final volume of 500 ul. Nonspecific binding was determined in the presence of 1 μM r ADM. After incubating for 30 min at 25° C., the reaction mixture was rapidly diluted with cold 0.9% NaCl and bound and free ligands were separated by filtration on glass fiber filters.\n(§3) [^125 I] […] The specificity of [^125 I] rADM binding to BE-CRLR membranes was investigated by analyzing the displacement of this radioligand binding by ADM and related peptides."}, "[4]": {"biological_target": "T1, BECRLR (bovine calcitonin receptor-like receptor)", "experiment": "Saturation / specific radioligand binding to BECRLR-293 membranes", "procedure": "as §1\nas §2, with “filters. In competition binding studies, the membranes were incubated with increasing concentrations of r ADM or CGRP (1 pM-1 uM) and 150 pM of [^125 I] r ADM for 30 min. at 25° C.” for “filters.”\nHEK293 cells transiently transfected with this clone responded to CGRP and ADM […] by stimulating adenylyl cyclase activity (60-80% over basal). This clone has been stably expressed in HEK293 cells using the LipofectAMINE procedure and analyzed for CGRP and ADM-mediated adenylyl cyclase activity. One of the positive clones (BECRLR #8) was fully characterized. […] To investigate further the functional results described in this study, a binding study using [^125 I]rADM and [^125 I]CGRP was performed to identify the presence of binding sites for both peptides in BE-CRLR (#8) cell membranes. [^125 I] CGRP binding was very little and the affinity or number of binding sites was difficult to determine. […] The specificity of [^125 I] rADM binding to BE-CRLR membranes was investigated by analyzing the displacement of this radioligand binding by ADM and related peptides. […]"}, "[5]": {"tested_on": "rat tissues", "conditions": "[125I] rat ADM; cited from earlier work"}, "[6]": {"biological_target": "T1, BECRLR (bovine calcitonin receptor-like receptor)", "experiment": "Inhibition of ADM-activated adenylyl cyclase activity (antagonism) in BECRLR-293 membranes", "type": "biochemical", "conditions": "BECRLR #8", "procedure": "as §1, §3"}, "[7]": {"tested_on": "insulin's effects on glucose metabolism", "conditions": "cited from earlier work"}, "[8]": {"conditions": "infusion into humans and a variety of other species; cited from earlier work"}, "[9]": {"tested_on": "CRLR coexpressed with RAMP 1", "conditions": "CRLR with RAMP 1; cited from earlier work"}, "[10]": {"tested_on": "vector transfected HEK293 cell membranes", "experiment": "Adenylyl cyclase activity in vector transfected HEK293 cell membranes (control)", "type": "biochemical, human", "procedure": "(§4) Membrane-bound adenylyl cyclase activity was determined. Membranes [40-60 ug protein] were incubated in triplicate tubes in buffer containing 50 mM Tris-HCl, pH 7.4, 10 mM MgCl2, 1.2 mM ATP, 1.0 μCi [α^32P]ATP, 0.1 mM cAMP, 2.8 mM phosphoenolpyruvate and 5.2 μg/ml myokinase in a final volume of 100 μl for 20 min at 30° C. The reactions were stopped with 1 ml of a solution containing 0.28 mM cAMP, 0.33 mM ATP and 22,000 dpm of [^3 H]cAMP. [^32 P]cAMP was separated using sequential chromatography as the rate of conversion of [(α^32 P]ATP to [^32 P]cAMP on Dowex and alumina columns (33). Adenylyl cyclase activities were determined in the absence (basal) or presence of various concentrations of rat ADM or hαCGRP (1 pM to 1 μM). The effect of ADM (22-52), ADM (26-52) and hαCGRP(8-37), on ADM-mediatedactivation of adenylyl cyclase was also determined.\nHEK293 cells transiently transfected with this clone responded to CGRP and ADM […] by stimulating adenylyl cyclase activity (60-80% over basal). This clone has been stably expressed in HEK293 cells using the LipofectAMINE procedure and analyzed for CGRP and ADM-mediated adenylyl cyclase activity. One of the positive clones (BECRLR #8) was fully characterized. […]"}, "[11]": {"biological_target": "T1, BECRLR (bovine calcitonin receptor-like receptor)", "experiment": "Adenylyl cyclase activity (activation) in BECRLR-expressing HEK293 cells/membranes", "type": "biochemical", "design": "adenylyl cyclase activity stimulation over basal: dose or concentration left out as unconfirmed", "conditions": "for additive effect between CGRP and ADM on adenylyl cyclase: CGRP combined with ADM, BECRLR #8; for adenylyl cyclase activity stimulation over basal: HEK293 cells transiently transfected; for EC50 / activation of adenylyl cyclase activity over basal: stable clone BECRLR #8; for activation of adenylyl cyclase activity over basal: concentration-dependent", "description": "A bovine endothelial cell cDNA library was constructed using the k-Zap cDNA synthesis kit (Stratagene, La Jolla, Calif.) following the standard protocol. The human CGRP receptor c-DNA-coding sequence was used as a probe for the isolation of CRLR clones from an endothelial cell library. The probe was radiolabled with [α^32 P] ATP by the random priming method and used to screen approximately 1×10^6 plaque-forming units of the endothelial CRLR cDNA library. Nylon filters (Hybond ) containing plaque lifts were hybridized at 42° in 5× SSC (SSC is 150 mM NaCl and 15 mM sodium citrate), 5× Denhardt's solution, 0.1% SDS and 20% formamide followed by autography. Hybridizing clones (8) were plaque purified, and the pBluescript-containing insert was rescued from the purified×phage by in vivo excision using the Exassist/Solar system (Stratagene) and was sequenced in both strands by the dideoxynucleotide chain termination reaction. Two oligonucleotide primers were designed to amplify the open reading frame of the novel bovine CRLR cDNA. PCR amplification was carried out. A recombinant of the novel bovine CRLR was produced by transfection in HEK-293 cells. Transfection was achieved by LipofectAMINE procedure (Life Technologies, Gaithersburg, Md.). Stable cell lines expressing this receptor were selected with G418 and screened for CGRP and ADM-dependent activation of adenylyl cyclase.\nas §1, §4\nHEK293 cells transiently transfected with this clone responded to CGRP and ADM […] by stimulating adenylyl cyclase activity (60-80% over basal). This clone has been stably expressed in HEK293 cells using the LipofectAMINE procedure and analyzed for CGRP and ADM-mediated adenylyl cyclase activity. One of the positive clones (BECRLR #8) was fully characterized. […] To investigate further the functional results described in this study, a binding study using [^125 I]rADM and [^125 I]CGRP was performed to identify the presence of binding sites for both peptides in BE-CRLR (#8) cell membranes. [^125 I] CGRP binding was very little and the affinity or number of binding sites was difficult to determine. […] The specificity of [^125 I] rADM binding to BE-CRLR membranes was investigated by analyzing the displacement of this radioligand binding by ADM and related peptides. Human and rat ADM displaced [^125 I] rADM binding with high affinity (IC50 values 2-4 nM)."}, "[12]": {"conditions": "injected intravenously into rats; cited from earlier work"}, "[13]": {"tested_on": "NO-cGMP system", "conditions": "kidney, vascular EC, rabbit ventricular myocytes; cited from earlier work"}, "[14]": {"tested_on": "insulin secretion and blood glucose metabolism", "conditions": "cited from earlier work"}, "[15]": {"tested_on": "CRLR co-expressed with RAMP2", "conditions": "cited from earlier work"}, "[16]": {"tested_on": "rat vascular SMC and cardiomyocytes", "conditions": "cited from earlier work"}, "[17]": {"tested_on": "vascular SMC, and bovine EC", "conditions": "cited from earlier work"}}, "note": "Ends that are not written are not given here.", "data": [{"compound": "COc1ccc(Cl)cc1C(=O)NCCc1ccc(S(=O)(=O)NC(=O)NC2CCCCC2)cc1", "note": "[glibenclamide]", "values": [{"measurement": "inhibition of CGRP actions", "setting": "[1]", "value": "CGRP actions are inhibited by glibenclamide"}]}, {"compound": "COc1cc(CNC(=O)CCCC/C=C/C(C)C)ccc1O", "note": "[capsaicin]", "values": [{"measurement": "insulin-stimulated glycogen synthesis", "setting": "[2]", "value": "inhibits insulin-stimulated glycogen synthesis"}]}, {"compound": "rat ADM: rat adrenomedullin (YRQSMNQGSRSTGCRFGTCTMQKLAHQIYQFTDKDKDGMAPRNKISPQGY; ends and bridges not checked; cysteine pairing not given here; UniProt P43145 94-143, looked up)", "values": [{"measurement": "IC50", "setting": "[3]", "value": "2 to 4", "unit": "nM"}]}, {"compound": "C=C(C)[C@]12C[C@@H](C)[C@@]34O[C@](Cc5ccccc5)(O[C@@H]1[C@@H]3C=C(COC(=O)Cc1ccc(O)c(OC)c1)C[C@]1(O)C(=O)C(C)=C[C@@H]41)O2", "note": "[resiniferatoxin]", "values": [{"measurement": "insulin-stimulated glycogen synthesis", "setting": "[2]", "value": "inhibits insulin-stimulated glycogen synthesis"}]}, {"compound": "[^125 I]rADM: radioiodinated rat adrenomedullin, radioligand (YRQSMNQGSRSTGCRFGTCTMQKLAHQIYQFTDKDKDGMAPRNKISPQGY; ends and bridges not checked; also: radioiodinated (125I), position not given here; UniProt P43145 94-143, looked up)", "values": [{"measurement": "Kd", "setting": "[4]; Scatchard transformation, single class of high affinity binding site, read-out: dissociation constant (Kd)", "value": 0.25, "unit": "nM"}, {"measurement": "specific binding as percent of total binding", "setting": "[4]; [125I]rADM, BE-CRLR (#8) cell membranes", "value": "80-90 % of the total binding"}, {"measurement": "density of ADM binding sites among rat tissues", "setting": "[5]", "value": "lung had the highest density of ADM binding sites"}]}, {"compound": "ADM(22-52): ADM receptor antagonist, fragment 22-52 of adrenomedullin", "values": [{"measurement": "IC50", "setting": "[6]", "value": 110, "unit": "nM"}, {"measurement": "displacement potency relative to ADM (fold less potent than ADM)", "setting": "[3]; [125I] rADM displacement", "value": "approximately 15 fold"}]}, {"compound": "Calcitonin gene-related peptide [CGRP]", "values": [{"measurement": "glucose infusion rate needed to maintain plasma euglycemia", "setting": "[7]; glucose clamp in rats, constant insulin infusion rate", "value": "rapid and sustained reduction in the glucose infusion rate"}, {"measurement": "insulin inhibition of hepatic glucose production", "setting": "[7]; rat, in vivo", "value": "effective in blocking insulin inhibition of hepatic glucose production"}, {"measurement": "vasodilation, blood flow, blood pressure, heart rate", "setting": "[8]", "value": "vasodilation, increased regional blood flow, hypotension and tachycardia"}, {"measurement": "response of expressed receptor", "setting": "[9]", "value": "responds to CGRP"}, {"measurement": "activation of adenylyl cyclase in vector transfected membranes", "setting": "[10]", "value": "did not respond"}, {"measurement": "displacement of [125I] rADM binding, potency in words", "setting": "[3]; [125I] rADM displacement", "value": "less potent"}, {"measurement": "additive effect between CGRP and ADM on adenylyl cyclase", "setting": "[11]", "value": "no additive effect"}, {"measurement": "adenylyl cyclase activity stimulation over basal", "setting": "[11]", "value": "60-80 % over basal"}, {"measurement": "EC50", "setting": "[11]", "value": 2.8, "unit": "nM"}, {"measurement": "activation of adenylyl cyclase activity over basal", "setting": "[11]", "value": "~ 300 % over basal"}]}, {"compound": "Human adrenomedullin [Human ADM]", "values": [{"measurement": "IC50", "setting": "[3]", "value": "2 to 4", "unit": "nM"}]}, {"compound": "ADM(26-52): ADM receptor antagonist, fragment 26-52 of adrenomedullin (LAHQIYQFTDKDKDNVAPRSKISPQGY; ends and bridges not checked; UniProt P35318 120-146, looked up, fragment)", "values": [{"measurement": "IC50", "setting": "[6]", "value": "> 10000", "unit": "nM"}]}, {"compound": "adrenomedullin (YRQSMNQGSRSTGCRFGTCTMQKLAHQIYQFTDKDKDGMAPRNKISPQGY; ends and bridges not checked; cysteine pairing not given here; UniProt P43145 94-143, looked up) [ADM, vasodilating peptide]", "values": [{"measurement": "hypotension", "setting": "[12]", "value": "strong, long-lasting hypotension"}, {"measurement": "NO-cGMP system", "setting": "[13]", "value": "activated the NO-cGMP system"}, {"measurement": "insulin secretion and blood glucose metabolism", "setting": "[14]", "value": "down-regulate insulin secretion and blood glucose metabolism"}, {"measurement": "affinity of BECRLR, overall conclusion", "setting": "[4]; based on radioligand binding and functional assays", "value": "higher affinity to ADM"}, {"measurement": "response of expressed receptor", "setting": "[15]", "value": "responds to ADM"}, {"measurement": "activation of adenylyl cyclase in vector transfected membranes", "setting": "[10]", "value": "did not respond"}, {"measurement": "additive effect between CGRP and ADM on adenylyl cyclase", "setting": "[11]", "value": "no additive effect"}, {"measurement": "adenylyl cyclase activity stimulation over basal", "setting": "[11]", "value": "60-80 % over basal"}, {"measurement": "EC50", "setting": "[11]", "value": 4.3, "unit": "nM"}, {"measurement": "activation of adenylyl cyclase activity over basal", "setting": "[11]", "value": "~ 300 % over basal"}, {"measurement": "c-fos gene expression and AP-I DNA binding activity", "setting": "[16]", "value": "induces rapid and transient c-fos gene expression and AP-I DNA binding activity"}, {"measurement": "intracellular Ca++", "setting": "[17]; through the activation of phospholipase C", "value": "induces a rise in intracellular Ca^++"}, {"measurement": "accumulation of intracellular cAMP", "setting": "[17]; vascular SMC, and bovine EC", "value": "stimulates the accumulation of intracellular cAMP"}]}]}
